Patent publication US8697877B2, “Oxyindole derivatives with motilin receptor agonistic activity” (RaQualia Pharma Inc., priority 2009, dated 2014)

Molecular target: T1, human motilin receptor (GPR38) (Homo sapiens, UniProt O43193)
T1 construct: expressed in transfected cells; host or cells: CHO-K1
Assay: GPR38 (Motilin Receptor) Functional Assay, NFAT-beta-lactamase reporter in CHO-K1 cells
Format: cell-based
Protocol: The potencies and efficacies of the compounds of this invention for GPR38 can be determined by reporter assay performed on the human cloned receptor as described herein.
GPR38 (Motilin Receptor) Functional Assay
A CHO-K1 cell line stably transfected NFAT-beta-lactamase reporter and human motilin receptor gene was used. The cells were cultured in culture medium (Dulbecco's modified eagle medium containing 10% fetal bovine serum, 1 mM sodium pyruvate, 0.1 mM MEM nonessential amino acids, 25 mM HEPES buffer, 50 units/mL penicillin, 50 microg/mL streptomycin, 100 microg/mL zeocin, and 500 microg/mL G418). The cells were harvested with 0.05% trypsin EDTA and centrifuged. The cell pellets were resuspended in the culture medium and plated into a black/clear bottom 384-well plate at a density of 8000 cells per well, then incubated at 37° C. with 5% CO2 for over night (about 20 hours). On the day of assay, the culture medium was aspirated and 20 microL of assay medium (Dulbecco's modified eagle medium containing 100 units/mL penicillin and 100 microg/mL streptomycin) was added to each well, then the cell plates were placed in incubator at 37° C. with 5% CO2 for 1.5 hours. Compounds were prepared in 100% DMSO and these were diluted to 5× of final concentration with assay buffer (Hanks balanced salt solution, 20 mM HEPES, and 0.1% BSA), then dispensed into 384-well plate (5 microL/well). After incubation at 37° C. with 5% CO2 for 4.5 hours, CCF4-AM loading solution (Invitrogen Corp.) was added to each well. After incubation for 2 hours at room temperature, fluorescence intensities were measured by using plate reader FDSS (Hamamatsu Photonics K. K.) with excitation 400 nm, emission 465 nm/540 nm. Agonistic activity (EC50) was calculated from the sigmoidal dose-response curve using GraphPad Prism software (GraphPad Software, Inc.).

T1 sequence (O43193 whole entry): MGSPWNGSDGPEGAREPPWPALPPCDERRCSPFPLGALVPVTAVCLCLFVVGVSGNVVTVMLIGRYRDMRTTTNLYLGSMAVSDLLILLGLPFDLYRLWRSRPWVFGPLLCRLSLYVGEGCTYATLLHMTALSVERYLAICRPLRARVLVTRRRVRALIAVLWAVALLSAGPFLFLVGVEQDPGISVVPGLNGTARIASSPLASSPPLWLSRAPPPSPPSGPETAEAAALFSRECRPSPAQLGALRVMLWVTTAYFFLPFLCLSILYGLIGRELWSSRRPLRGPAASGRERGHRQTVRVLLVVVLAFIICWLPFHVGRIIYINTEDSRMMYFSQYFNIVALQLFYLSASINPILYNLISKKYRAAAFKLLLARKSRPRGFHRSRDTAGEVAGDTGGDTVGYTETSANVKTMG

Compound: CN(C[C@@H]1CCCN1)C(=O)N[C@@H](CCc1ccccc1)C(=O)N1CCC(N2C(=O)C(C)(C)c3ccccc32)CC1 [Example 50, 3-((S)-1-(4-(3,3-dimethyl-2-oxo-indolin-1-yl)piperidin-1-yl)-1-oxo-4-phenylbutan-2-yl)-1-methyl-1-((S)-pyrrolidin-2-ylmethyl)urea]
- EC50: ≤ 10 nM

Compound: CC1(C)C(=O)N(C2CCN(C(=O)[C@H](CCc3ccccc3)NC(=O)NC[C@H]3CCCN3)CC2)c2ccccc21 [Example 51, 1-((S)-1-(4-(3,3-dimethyl-2-oxo-indolin-1-yl)piperidin-1-yl)-1-oxo-4-phenylbutan-2-yl)-3-((R)-pyrrolidin-2-ylmethyl)urea]
- EC50: ≤ 10 nM

Compound: CC1(C)C(=O)N(C2CCN(C(=O)[C@H](CCc3ccccc3)NC(=O)N[C@@H]3CCNC3)CC2)c2ccccc21 [Example 52, 1-((S)-1-(4-(3,3-dimethyl-2-oxo-indolin-1-yl)piperidin-1-yl)-1-oxo-4-phenylbutan-2-yl)-3-((R)-pyrrolidin-3-yl)urea]
- EC50: ≤ 10 nM

Compound: CC1(C)C(=O)N(C2CCN(C(=O)[C@H](CCc3ccccc3)NC(=O)NC[C@@H]3CCNC3)CC2)c2ccccc21 [Example 53, 1-((S)-1-(4-(3,3-dimethyl-2-oxo-indolin-1-yl)piperidin-1-yl)-1-oxo-4-phenylbutan-2-yl)-3-((R)-pyrrolidin-3-ylmethyl)urea]
- EC50: ≤ 10 nM

Compound: C[C@@H]1CN(C(=O)N[C@@H](CCc2ccccc2)C(=O)N2CCC(N3C(=O)C(C)(C)c4ccccc43)CC2)CCN1 [Example 54, (R)-N-((S)-1-(4-(3,3-dimethyl-2-oxoindolin-1-yl)piperidin-1-yl)-1-oxo-4-phenylbutan-2-yl)-3-methyl-piperazine-1-carboxamide]
- EC50: ≤ 10 nM

Compound: CCC1(NC(=O)N[C@@H](CCc2ccccc2)C(=O)N2CCC(N3C(=O)C(C)(C)c4ccccc43)CC2)CCNCC1 [Example 55, (S)-1-(1-(4-(3,3-dimethyl-2-oxo-indolin-1-yl)piperidin-1-yl)-1-oxo-4-phenylbutan-2-yl)-3-(4-ethylpiperidin-4-yl)urea]
- EC50: ≤ 10 nM

Compound: CC1(NC(=O)N[C@@H](CCc2ccccc2)C(=O)N2CCC(N3C(=O)C(C)(C)c4ccccc43)CC2)CCNCC1 [Example 56, (S)-1-(1-(4-(3,3-dimethyl-2-oxo-indolin-1-yl)piperidin-1-yl)-1-oxo-4-phenylbutan-2-yl)-3-(4-methyl-piperidin-4-yl)urea]
- EC50: ≤ 10 nM

Compound: CC1(C)C(=O)N(C2CCN(C(=O)[C@H](CCc3ccccc3)NC(=O)N[C@H]3CCNC3)CC2)c2ccccc21 [Example 57, 1-((S)-1-(4-(3,3-dimethyl-2-oxo-indolin-1-yl)piperidin-1-yl)-1-oxo-4-phenylbutan-2-yl)-3-((S)-pyrrolidin-3-yl)urea]
- EC50: ≤ 10 nM

Compound: CC1(C)C(=O)N(C2CCN(C(=O)[C@H](CCc3ccccc3)NC(=O)NC[C@@H]3CCCCN3)CC2)c2ccccc21 [Example 60, 1-((S)-1-(4-(3,3-dimethyl-2-oxo-indolin-1-yl)piperidin-1-yl)-1-oxo-4-phenylbutan-2-yl)-3-((S)-piperidin-2-ylmethyl)urea]
- EC50: ≤ 10 nM

Compound: CC1(C)C(=O)N(C2CCN(C(=O)[C@H](CCc3ccccc3)NC(=O)NC[C@@H]3CCCNC3)CC2)c2ccccc21 [Example 61, 1-((S)-1-(4-(3,3-dimethyl-2-oxo-indolin-1-yl)piperidin-1-yl)-1-oxo-4-phenylbutan-2-yl)-3-((R)-piperidin-3-ylmethyl)urea]
- EC50: ≤ 10 nM

Compound: CC(C)(N)CNC(=O)N[C@@H](CCc1ccccc1)C(=O)N1CCC(N2C(=O)C(C)(C)c3ccccc32)CC1 [Example 62, (S)-1-(2-amino-2-methylpropyl)-3-(1-(4-(3,3-dimethyl-2-oxoindolin-1-yl)piperidin-1-yl)-1-oxo-4-phenyl-butan-2-yl)urea]
- EC50: ≤ 10 nM

Compound: CN(C1CC1)[C@H]1CCN(C(=O)N[C@@H](CCc2ccccc2)C(=O)N2CCC(N3C(=O)C(C)(C)c4ccccc43)CC2)C1 [Example 63, (S)-3-(cyclopropyl(methyl)amino)-N-((S)-1-(4-(3,3-dimethyl-2-oxo-indolin-1-yl)piperidin-1-yl)-1-oxo-4-phenylbutan-2-yl)pyrrolidine-1-carboxamide]
- EC50: ≤ 10 nM

Compound: CC1(C)C(=O)N(C2CCN(C(=O)[C@H](CCc3ccccc3)NC(=O)NCCN3CCCC3)CC2)c2ccccc21 [Example 64, (S)-1-(1-(4-(3,3-dimethyl-2-oxo-indolin-1-yl)piperidin-1-yl)-1-oxo-4-phenylbutan-2-yl)-3-(2-(pyrrolidin-1-yl)ethyl)urea]
- EC50: ≤ 10 nM

Compound: CN(C)CCNC(=O)N[C@@H](CCc1ccccc1)C(=O)N1CCC(N2C(=O)C(C)(C)c3ccccc32)CC1 [Example 65, (S)-1-(1-(4-(3,3-dimethyl-2-oxo-indolin-1-yl)piperidin-1-yl)-1-oxo-4-phenylbutan-2-yl)-3-(2-(dimethyl-amino)ethyl)urea]
- EC50: ≤ 10 nM

Compound: CN(C)[C@H]1CCN(C(=O)N[C@@H](CCc2ccccc2)C(=O)N2CCC(N3C(=O)C(C)(C)c4ccccc43)CC2)C1 [Example 67, (S)—N—((S)-1-(4-(3,3-dimethyl-2-oxoindolin-1-yl)piperidin-1-yl)-1-oxo-4-phenylbutan-2-yl)-3-(dimethylamino)pyrrolidine-1-carboxamide]
- EC50: ≤ 10 nM

Compound: CN1CCC[C@H]1CNC(=O)N[C@@H](CCc1ccccc1)C(=O)N1CCC(N2C(=O)C(C)(C)c3ccccc32)CC1 [Example 68, 1-((S)-1-(4-(3,3-dimethyl-2-oxo-indolin-1-yl)piperidin-1-yl)-1-oxo-4-phenylbutan-2-yl)-3-(((S)-1-methylpyrrolidin-2-yl)methyl)urea]
- EC50: ≤ 10 nM

Compound: CN1CCC(C)(NC(=O)N[C@@H](CCc2ccccc2)C(=O)N2CCC(N3C(=O)C(C)(C)c4ccccc43)CC2)CC1 [Example 69, (S)-1-(1-(4-(3,3-dimethyl-2-oxo-indolin-1-yl)piperidin-1-yl)-1-oxo-4-phenylbutan-2-yl)-3-(1,4-dimethylpiperidin-4-yl)urea]
- EC50: ≤ 10 nM

Compound: CN[C@H]1CCN(C(=O)N[C@@H](CCc2ccccc2)C(=O)N2CCC(N3C(=O)C(C)(C)c4cc(F)ccc43)CC2)C1 [Example 70, (S)—N—((S)-1-(4-(5-fluoro-3,3-dimethyl-2-oxoindolin-1-yl)piperidin-1-yl)-1-oxo-4-phenylbutan-2-yl)-3-(methylamino)pyrrolidine-1-carboxamide]
- EC50: ≤ 10 nM

Compound: CC1(C)C(=O)N(C2CCN(C(=O)[C@H](CCc3ccccc3)NC(=O)NC[C@@H]3CCCN3)CC2)c2ccc(F)cc21 [Example 71, 1-((S)-1-(4-(5-fluoro-3,3-dimethyl-2-oxoindolin-1-yl)piperldin-1-yl)-1-oxo-4-phenylbutan-2-yl)-3-((S)-pyrrolidin-2-ylmethyl)urea]
- EC50: ≤ 10 nM

Compound: CC1(NC(=O)N[C@@H](CCc2ccccc2)C(=O)N2CCC(N3C(=O)C(C)(C)c4cc(F)ccc43)CC2)CCNCC1 [Example 72]
- EC50: ≤ 10 nM

Compound: CC1(C)C(=O)N(C2CCN(C(=O)[C@H](Cc3ccccc3C(F)(F)F)NC(=O)C3CCNCC3)CC2)c2ccccc21 [Example 78, (S)-N-(1-(4-(3,3-dimethyl-2-oxoindolin-1-yl)piperidin-1-yl)-1-oxo-3-(2-(trifluoro-methyl)phenyl)propan-2-yl)piperidine-4-carboxamide]
- EC50: ≤ 10 nM
